This note sets out measurements from patent publication US20260083864A1, “CONTRAST AGENTS FOR USE IN DIAGNOSTIC COMPUTED TOMOGRAPHY IMAGING” (Bayer Aktiengesellschaft, priority 2022, published 2026).

SMILES strings stand for the structures. Where only a bound is given, the exact number is not on record here.

The nature of series [1]: Relaxivity measurements at 1.41 T in water. As to conditions: 37° C., normalized to Gd. It counts as physicochemical. In outline:
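T1 by inversion recovery and T2 by CPMG at 1.41 T (60 MHz), 37° C, relaxation delay ≥5×T1. Three Gd concentrations between 0.05 and 2 mM; relaxivities derived from measured relaxation rates in water.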

The target of the next series is T1, OATP1B1 (Homo sapiens, UniProt Q9Y6L6).
T1 sequence (Q9Y6L6 1-691): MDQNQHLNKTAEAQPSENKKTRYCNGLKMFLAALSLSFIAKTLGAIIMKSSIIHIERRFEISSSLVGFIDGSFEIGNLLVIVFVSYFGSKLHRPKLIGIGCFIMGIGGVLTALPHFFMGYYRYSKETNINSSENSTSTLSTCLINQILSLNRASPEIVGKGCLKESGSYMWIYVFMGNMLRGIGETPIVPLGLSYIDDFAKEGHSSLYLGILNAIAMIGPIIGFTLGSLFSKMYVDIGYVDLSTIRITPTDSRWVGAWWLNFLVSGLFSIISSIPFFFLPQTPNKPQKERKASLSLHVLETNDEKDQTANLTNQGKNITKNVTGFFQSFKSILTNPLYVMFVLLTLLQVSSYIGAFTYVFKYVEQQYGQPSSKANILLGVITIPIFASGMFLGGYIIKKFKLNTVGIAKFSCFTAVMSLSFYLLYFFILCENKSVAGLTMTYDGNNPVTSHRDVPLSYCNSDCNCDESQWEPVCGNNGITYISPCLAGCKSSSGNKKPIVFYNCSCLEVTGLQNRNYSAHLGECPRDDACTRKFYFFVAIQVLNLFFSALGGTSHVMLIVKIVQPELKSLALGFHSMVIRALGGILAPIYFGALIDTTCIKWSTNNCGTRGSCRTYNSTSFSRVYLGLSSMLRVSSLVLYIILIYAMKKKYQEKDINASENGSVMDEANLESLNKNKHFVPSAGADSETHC
As to the kind of experiment: Uptake into stable transfected OATP1B1 HEK 293 cells. The settings on record: for Uptake into OATP1B1-HEK 293 cells: 40 min incubation, relative to RC1 (Gd-EOB-DTPA); for Inhibition Rifampicine: uptake into OATP1B1-HEK 293 cells. The format is cell-based. In outline: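 Stably transfected OATP1B1 HEK293 cells incubated 40 min without shaking with test item at 100 µM final in transport buffer, in triplicate. Cells then washed with cold PBS; gadoxetate run on the same plate as reference.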

Series [2] can be described thus: Relaxivity measurements at 1.41 T in human plasma. It counts as physicochemical. The settings on record: 37° C., normalized to Gd. An outline of the steps:
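T1 determined by inversion recovery (8 inversion-time steps) and T2 by CPMG sequence, both with relaxation delay ≥5×T1. Each relaxivity used three Gd concentrations between 0.05 and 2 mM. Relaxivities were derived from relaxation rates measured in water and plasma.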

Series [3] has as its system freshly isolated rat hepatocytes. Nature of the series: Uptake into freshly isolated rat hepatocytes. As to conditions: for Uptake rat hepatocytes: 100 μmol Gd/L, 10 min, 37° C., relative to RC1 (Gd-EOB-DTPA); for Inhibition Rifampicine: rat hepatocyte uptake, test item and Rifampicine 1:1, each 100 μM.
Experimental: After incubation the adherent hepatocytes were washed once with 37° C. Hepes carbonate transport buffer (500 μL/well). The test items and RC1 were prepared from stock solutions (180 to 500 mM concentration) in Hepes carbonate transport buffer at pH 7.4 to reach a final concentration of 100 μmol Gd/L. The specific uptake of the test item or RC1 into rat hepatocytes via OATP1B1 and OATP1B3 was challenged using a known OATP1B1/1B3 inhibitor (Rifampicine, Fa. Sigma R3501, test item and inhibitor 1:1 each 100 μM final concentration). The prepared rat hepatocyte plates were incubated with test solutions (500 μL/well) at 37° C. for 10 min using a thermoshaker (Fa. Grant Bio, PHMP). Triplicates were performed for each test item. After incubating the cells were washed once with cold PBS buffer (Fa. Gibco, Dulbeccos PBS (+)). After washing the intact hepatocytes were lysed by addition of 500 μL cold 0.01% Triton-X 100 in Millipore water for 1 h. […] As a reference standard RC1 is used in the same well plate. The hepatocyte uptake of the test compound is calculated relative to RC1 (resulting in the unit % of RC1).
Series [4] can be described thus: Partition coefficient (log P butanol/buffer). The settings on record: 1-butanol / 50 mM Tris-HCl, pH 7.4, room temperature. The format is physicochemical.
The next series addresses T2, OATP1B3 (Homo sapiens, UniProt Q9NPD5).
T2 sequence (Q9NPD5 1-702): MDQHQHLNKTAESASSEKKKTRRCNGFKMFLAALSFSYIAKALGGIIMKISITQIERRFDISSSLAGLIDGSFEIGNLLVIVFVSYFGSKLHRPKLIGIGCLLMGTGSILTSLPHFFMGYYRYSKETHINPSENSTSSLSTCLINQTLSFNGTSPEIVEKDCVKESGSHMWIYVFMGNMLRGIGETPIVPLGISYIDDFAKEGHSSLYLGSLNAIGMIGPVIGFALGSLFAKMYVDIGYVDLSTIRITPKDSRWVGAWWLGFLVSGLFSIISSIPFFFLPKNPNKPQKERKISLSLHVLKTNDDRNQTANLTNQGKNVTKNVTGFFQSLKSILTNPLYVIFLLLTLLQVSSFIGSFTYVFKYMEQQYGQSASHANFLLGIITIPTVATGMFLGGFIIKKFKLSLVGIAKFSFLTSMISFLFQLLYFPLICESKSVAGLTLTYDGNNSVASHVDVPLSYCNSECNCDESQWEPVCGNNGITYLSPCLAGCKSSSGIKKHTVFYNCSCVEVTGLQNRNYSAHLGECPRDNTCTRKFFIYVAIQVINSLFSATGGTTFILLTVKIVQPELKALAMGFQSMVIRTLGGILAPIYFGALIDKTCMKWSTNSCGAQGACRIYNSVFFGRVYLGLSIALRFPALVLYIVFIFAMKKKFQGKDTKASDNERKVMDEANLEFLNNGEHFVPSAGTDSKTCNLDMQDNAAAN
Nature of the series: Uptake into stable transfected OATP1B3 HEK 293 cells. The settings on record: for Uptake into OATP1B3-HEK 293 cells: 40 min incubation, relative to RC1 (Gd-EOB-DTPA); for Inhibition Rifampicine: uptake into OATP1B3-HEK 293 cells. The format is cell-based. An outline of the steps: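 HEK 293 cells stably transfected with human OATP1B3 were incubated for 40 min with test items at 100 μM final in transport buffer, in triplicate, then washed with cold PBS. Gadoxetate (Gd-EOB-DTPA) served as the reference standard on the same plate.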

Series [5] in a line: Complex stability (transmetallation) against Zn2+ in phosphate buffer. The settings on record: 72 hours, 2.5 mM Zn^2+, 26 mM phosphate buffer, 37° C., pH 7.4. An excerpt: If test compounds are instable under these conditions, transmetallation during this test would lead to the formation of the Zn^2+ complex of the test item, while Gd^3+ is released and precipitated as highly insoluble GdPO4.

Series [6] in a line: Water solubility in aqueous buffer. The settings on record: aqueous buffer 10 mM Tris-HCl, pH 7.4, 20° C. Here is the method:
The solid compounds were added stepwise to the buffer solution. More substance is added once all the suspended material is dissolved until an equilibrium between undissolved and dissolved substance is reached. The suspension was mixed using a shaker (Heidolph Reax 2000) and treated 5 min in an ultrasound bath (Bandelin, Sonorex Super RK255H).

What is called Solubility is the concentration that dissolves in the medium under given conditions. The compound `CCOCCOCCOc1ccc(CC(C(=O)O)N2CCN(CC(=O)[O-])CCN(CC(=O)[O-])CCN(CC(=O)[O-])CC2)cn1.[Gd+3]` (stereo not shown) [Example 16, gadolinium 2,2′,2″-{10-[1-carboxy-2-{6-[2-(2-ethoxyethoxy)ethoxy]pyridin-3-yl}ethyl]-1,4,7,10-tetraazacyclododecane-1,4,7-triyl}triacetate] had a r1 water in series [1] of 4.4 L/mmol/s. On OATP1B1, the “Uptake into OATP1B1-HEK 293 cells” value is 66 % of RC1 and the “Inhibition Rifampicine” value is on record as 35 % inhibition. The r1 human plasma in series [2] amounted to 6.2 L/mmol/s. In series [3], the Uptake rat hepatocytes is 16 % of RC1 and the “Inhibition Rifampicine” value came to 92 % inhibition. In series [4], the “Log P (partition coefficient butanol/buffer)” value is reported as −1.81. On OATP1B3, the “Uptake into OATP1B3-HEK 293 cells” value is reported as 25 % of RC1 and the “Inhibition Rifampicine” value worked out at 94 % inhibition. In series [5], this compound yielded a Transmetallation stability of 101%. For the same compound, the Solubility in series [6] is more than 416 mM.

`CCOCCOc1ccc(CC(C(=O)O)N2CCN(CC(=O)[O-])CCN(C(CC)C(=O)[O-])CCN(CC(=O)[O-])CC2)cc1.[Gd+3]` (single isomer, unassigned) [Example 7, gadolinium 2-[7-{1-carboxy-2-[4-(2-ethoxyethoxy)phenyl]ethyl}-4,10-bis(carboxylatomethyl)-1,4,7,10-tetraazacyclododecan-1-yl]butanoate] displayed a r1 water in series [1] of 4.5 L/mmol/s. In addition, at OATP1B1, the “Uptake into OATP1B1-HEK 293 cells” value is 217 % of RC1 and the “Inhibition Rifampicine” value was 91 % inhibition. Also, the r1 human plasma in series [2] was 7.4 L/mmol/s. In addition, in series [3], the Uptake rat hepatocytes is reported as 89 % of RC1 and the “Inhibition Rifampicine” value is given as 99 % inhibition. In series [4], the “Log P (partition coefficient butanol/buffer)” value was −1.09. On OATP1B3, the “Uptake into OATP1B3-HEK 293 cells” value is 76 % of RC1 and the “Inhibition Rifampicine” value is listed as 99 % inhibition. The Transmetallation stability in series [5] was 101%. In series [6], this compound yielded a Solubility of more than 243 mM.

Take `CCOc1ccc(CCCC(C(=O)O)N2CCN(CC(=O)[O-])CCN(CC(=O)[O-])CCN(CC(=O)[O-])CC2)cc1.[Gd+3]` (stereo not shown) [Example 28, gadolinium 2,2′,2″-{10-[1-carboxy-4-(4-ethoxyphenyl)butyl]-1,4,7,10-tetraazacyclododecane-1,4,7-triyl}triacetate]: in series [1], the r1 water worked out at 4.4 L/mmol/s. Besides, on OATP1B1, the “Uptake into OATP1B1-HEK 293 cells” value is listed as 294 % of RC1 and the “Inhibition Rifampicine” value stood at 94 % inhibition. For the same compound, the r1 human plasma in series [2] turned out to be 10.6 L/mmol/s. In series [3], the Uptake rat hepatocytes was 72 % of RC1 and the “Inhibition Rifampicine” value came to 98 % inhibition. In series [4], the “Log P (partition coefficient butanol/buffer)” value was −0.71. On OATP1B3, the “Uptake into OATP1B3-HEK 293 cells” value is listed as 36 % of RC1 and the “Inhibition Rifampicine” value was determined as 97 % inhibition. In series [5], this compound registered a Transmetallation stability of 101%. In series [6], this compound had a Solubility of more than 194 mM.

In turn, `CCCCOc1cccc(CCC[C@@H](C(=O)O)N2CCN([C@@H](CO)C(=O)[O-])CCN([C@@H](CO)C(=O)[O-])CCN([C@@H](CO)C(=O)[O-])CC2)c1.[Gd+3]` [Example 34, gadolinium (2S,2′S,2″S)-2,2′,2″-{10-[(1S)-4-(3-butoxyphenyl)-1-carboxybutyl]-1,4,7,10-tetraazacyclododecane-1,4,7-triyl}tris(3-hydroxypropanoate)] registered a r1 water in series [1] of 4.9 L/mmol/s. Further, on OATP1B1, the “Uptake into OATP1B1-HEK 293 cells” value is recorded as 947 % of RC1 and the “Inhibition Rifampicine” value came out at 96 % inhibition. Besides, the r1 human plasma in series [2] was 18.0 L/mmol/s. Further, in series [3], the Uptake rat hepatocytes is 98 % of RC1 and the “Inhibition Rifampicine” value was 90 % inhibition. For the same compound, the “Log P (partition coefficient butanol/buffer)” value in series [4] is listed as 0.12. Further, at OATP1B3, the “Uptake into OATP1B3-HEK 293 cells” value is recorded as 140 % of RC1 and the “Inhibition Rifampicine” value was 98 % inhibition. Besides, the Transmetallation stability in series [5] is 101%. Further, the Solubility in series [6] is more than 236 mM.

Compound `CCOCCOCCOc1ccc(CC(C(=O)O)N2CCN(CC(=O)[O-])CCN(C(C)C(=O)[O-])CCN(CC(=O)[O-])CC2)cc1.[Gd+3]` (single isomer, unassigned) [Example 6, gadolinium 2-[7-(1-carboxy-2-{4-[2-(2-ethoxyethoxy)ethoxy]phenyl}ethyl)-4,10-bis(carboxylatomethyl)-1,4,7,10-tetraazacyclododecan-1-yl]propanoate] returned a r1 water in series [1] of 4.3 L/mmol/s. Also, in series [2], the r1 human plasma was found to be 6.6 L/mmol/s. For the same compound, in series [3], the Uptake rat hepatocytes was 62 % of RC1 and the “Inhibition Rifampicine” value came to 96 % inhibition. Moreover, the “Log P (partition coefficient butanol/buffer)” value in series [4] is recorded as −1.44. This compound also displayed a Transmetallation stability in series [5] of 102%. In series [6], this compound showed a Solubility of more than 217 mM.

With `CCOCCOCCOc1ccc(CC(C(=O)O)N2CCN(C(CO)C(=O)[O-])CCN(C(CO)C(=O)[O-])CCN(C(CO)C(=O)[O-])CC2)cc1.[Gd+3]` (stereo not shown) [Example 22, gadolinium 2,2′,2″-{10-[1-carboxy-2-{4-[2-(2-ethoxyethoxy)ethoxy]phenyl}ethyl]-1,4,7,10-tetraazacyclododecane-1,4,7-triyl}tris(3-hydroxypropanoate)], the r1 water in series [1] turned out to be 5.4 L/mmol/s. Further, on OATP1B1, the “Uptake into OATP1B1-HEK 293 cells” value is listed as 77 % of RC1 and the “Inhibition Rifampicine” value worked out at 51 % inhibition. Further, the r1 human plasma in series [2] was 7.7 L/mmol/s. In addition, in series [3], the Uptake rat hepatocytes was 41 % of RC1 and the “Inhibition Rifampicine” value is 83 % inhibition. In addition, on OATP1B3, the “Uptake into OATP1B3-HEK 293 cells” value was 46 % of RC1 and the “Inhibition Rifampicine” value stood at 96 % inhibition. Besides, the Transmetallation stability in series [5] is 96%. Moreover, the Solubility in series [6] is more than 308 mM.
